Measured values as given in publication PMC7848139, “Novel Hybrid CHC from β-carboline and N-Hydroxyacrylamide Overcomes Drug-Resistant Hepatocellular Carcinoma by Promoting Apoptosis, DNA Damage, and Cell Cycle Arrest” (Frontiers in Pharmacology, 2021).

Assays:
recombinant human HDAC1 = biological target: T1, recombinant human HDAC1 (Homo sapiens, UniProt Q13547); assay: HDAC fluorimetric assay, HDAC1; type: biochemical
T1 construct: purchased Enzo Life Sciences Inc
Method: The assay was conducted according to the HDAC1/3/6/8 assay kit (Enzo Life Sciences Inc.). Each different concentrations of evaluated compounds were, respectively, incubated with each HDAC1/3/6/8 at coupling of corresponding HDAC substrate (Boc-Lys (Ac)-AMC) at 37°C for 60 min. Then stopping the reaction under adding lysine developer.

[1] = tested on: H2AX (S139ph) in Bel7402/5-FU cells; assay: Western blotting of DNA damage marker H2AX; type: cell-based, human; details: 72 h
Method: The HDAC, autophagy and apoptosis-related proteins were analyzed according to Western blotting assay. […]. And anti-Ac-histone H3, anti-Ac-histone H4, anti-Ac-α-tubulin, anti-Bax, anti-Bcl2, anti-H2AX (S139ph), anti-CDK1, anti-cyclin B, and anti-β-actin antibodies (Cell Signaling Technology, MA, United States) detected the target proteins after membranes were blocked with 5% fat-free milk. The peroxidase-conjugated secondary antibodies detected the bound antibodies for 1 h and visualized according to improved chemiluminescent reagent.
[…]; (B) The relative expression levels of H2AX protein were quantitatively analyzed using an internal reference β-actin, and the data (mean ± SD) were from three separate experiments. *p < 0.01 vs. control.

T1 sequence (Q13547 whole entry): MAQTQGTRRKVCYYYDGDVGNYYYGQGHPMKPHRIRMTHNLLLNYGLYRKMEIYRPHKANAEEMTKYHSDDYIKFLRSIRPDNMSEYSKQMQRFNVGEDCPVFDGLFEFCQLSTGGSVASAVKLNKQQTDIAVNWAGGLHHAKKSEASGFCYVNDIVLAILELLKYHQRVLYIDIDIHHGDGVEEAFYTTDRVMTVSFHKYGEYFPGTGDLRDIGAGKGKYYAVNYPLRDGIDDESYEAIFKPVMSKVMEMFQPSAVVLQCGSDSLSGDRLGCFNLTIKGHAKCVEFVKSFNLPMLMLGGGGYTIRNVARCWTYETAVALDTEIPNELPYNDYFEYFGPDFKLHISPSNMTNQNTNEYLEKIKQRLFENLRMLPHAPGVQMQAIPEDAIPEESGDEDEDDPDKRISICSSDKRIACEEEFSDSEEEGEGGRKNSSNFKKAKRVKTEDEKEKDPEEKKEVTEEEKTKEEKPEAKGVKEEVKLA

IC50 on HDAC1 relative to SAHA (recombinant human HDAC1; compared with SAHA): approximately five-fold lower
IC50 (recombinant human HDAC1; mean ± SD of three experiments): 0.029 ± 0.003 µM
fold lower IC50 on HDAC1 than on HDAC3 (recombinant human HDAC1; selectivity HDAC1 over HDAC3): 4 fold
SMILES: CN(C)c1ccc(-c2nc(C(=O)NCc3ccc(/C=C/C(=O)NO)cc3)cc3c2[nH]c2ccccc23)cc1 [CHC, (E)-N-(4-(3-(hydroxyamino)-3-oxoprop-1-en-1-yl)benzyl)-1-(4-dimethylaminophenyl)-9H-pyrido [3,4-b]indole-3-carboxamide]
expression of phosphorylated H2AX [1]: induced the expression of phosphorylated H2AX in Bel7402/5-FU cells in a dosage-dependent manner
